Measured values from patent US7884093B2, “Progesterone for the treatment or prevention of spontaneous preterm birth” (priority 2007, dated 2011).

Key:
[1] = test system: cervix length of pregnant women; assay: Cervical length by transvaginal ultrasound at baseline and at 28 weeks of gestation; assay type: in vivo, human; conditions: baseline to 28 weeks gestation, all participants, 6-10 weeks of dosing
Experimental: (§1) Following randomization, daily treatment was initiated by the patient and continued until 37 0/7 weeks' gestational age, occurrence of preterm rupture of membranes, or delivery. Each patient was evaluated at 2-week intervals. All subjects had another transvaginal ultrasound to determine cervical length at 28 weeks of gestation.
Prior to beginning the study, baseline measurements of each of the participant's cervical length were taken and are summarized in FIG. 1. During the study, cervical length measurements were made by ultrasound at both baseline and later at 28 weeks after a period of 6-10 weeks of dosing. The mean cervix length of 3.7 cm was the same for both the treatment and placebo groups, and the range of cervical length for all participants was between 1.1 cm and 7.9 cm. At 28 weeks gestation, each participant's cervix was re-measured and the data was compared to the baseline data, and an unexpected and surprising finding was discovered.

[2] = test system: pregnant women at risk of preterm birth; conditions: cited from earlier work
[3] = test system: pregnant women with a short cervix; assay: Randomized trial, analysis of women with a shortened cervix in the midtrimester; assay type: in vivo, human
Experimental: The study further included women without a history of preterm birth and having a short cervix at the time of enrollment. […] The lowest quartile (≦3.2 cm) was combined with the short cervix only patients and subdivided sequentially and the primary and secondary outcomes for women with cervical lengths of ≦3.0 cm and <2.8 cm at the time of enrollment were analyzed. There were an insufficient number of patients with even shorter cervical lengths available for further analysis. For the purposes of the study, the criteria for short cervix was set at less than 2.8 cm.
The study included women with a documented history of spontaneous preterm birth (<35 weeks) in a singleton pregnancy in the immediate preceding parity regardless of cervical length, and women without a history of preterm birth but with midtrimester cervical shortening (≦2.5 cm) in the current pregnancy were offered enrollment in the study at 18 0/7-22 6/7 weeks of gestation. Recruitment began in April 2004 and the last patient delivered Jan. 8, 2007.
Therefore, women were excluded if any of the following conditions were present: age <18 or >45 years; multifetal gestation; history of an adverse reaction to progesterone or any component present in the treatment medication; treatment with progesterone within 4 weeks preceding enrollment; or current treatment for a seizure disorder, psychiatric disorder, or chronic hypertension. […] Patients who were currently or previously enrolled in another investigational study within one month prior to randomization were not included.
Patients were also restricted from participation in the trial if the present pregnancy was complicated by a major fetal anomaly or a known chromosome disorder. Patients with a cervical cerclage in place, or those intending to have one placed during the current pregnancy, were excluded from the study, as were those with signs of preterm rupture of membranes, vaginal bleeding, amnionitis, or preterm labor at enrollment.
Women with a history of spontaneous preterm birth in the preceding pregnancy regardless of cervical length or women without a history of preterm birth but with midtrimester cervical shortening in the current pregnancy were screened by the investigator or study coordinator between 16 0/7 and 22 6/7 weeks of gestation. Prior history of spontaneous preterm birth was confirmed by evaluation of the patient's medical records before enrollment. Gestational age was based on the patient's last menstrual period and correlated with an ultrasound biometry algorithm. Each patient had at least one ultrasound examination before randomization to confirm gestational age and rule out major fetal anomalies, and a transvaginal scan to determine the length of the cervix. Subjects meeting the study criteria were enrolled by the investigator between 18 0/7 and 22 6/7 weeks and received identically packaged, sequentially numbered progesterone or placebo vaginal gel in a 1:1 ratio. A SAS (SAS Institute Inc., Cary, N.C., USA) procedure for variable block size was used to generate a randomization schedule stratified by study site and by inclusion criteria (prior preterm birth or short cervix). Quintiles, Inc. (Kansas City, Mo., USA) generated the randomization sequences, which were confidentially provided to the packaging company. Treatment allocation was concealed by an identical packaging and labelling process performed by Aptuit, Inc. (Mount Laurel, N.J., USA). The study patients, obstetric care providers, study investigators, study coordinators, and study monitors were blind to the exposure status (progesterone or placebo) of all study patients.
as §1

[4] = test system: pregnant women with a history of spontaneous preterm birth; assay: Randomized, double-blind, placebo-controlled trial of vaginal progesterone gel on preterm birth; assay type: in vivo, human
Experimental: In light of the state of the art, a study was conducted to examine the effects of progesterone on preterm labor and premature birth in women with a history of a previous preterm birth. […] The selection, categorization, and breakdown of the two groups is outlined in the flow chart of FIG. 2. The study was a prospective, randomized, placebo-controlled, double-blind, multicenter trial in pregnant subjects at high risk of spontaneous preterm delivery. The study participants were screened from 16 0/7 and 22 6/7 weeks gestational age. Subjects were randomized to drug or placebo from 18 0/7 to 22 6/7 weeks.
Subjects meeting the study criteria were enrolled by the investigator between 18 0/7 and 22 6/7 weeks and received identically packaged, sequentially numbered progesterone or placebo vaginal gel in a 1:1 ratio. A SAS (SAS Institute Inc., Cary, N.C., USA) procedure for variable block size was used to generate a randomization schedule stratified by study site and by inclusion criteria (prior preterm birth or short cervix). Quintiles, Inc. (Kansas City, Mo., USA) generated the randomization sequences, which were confidentially provided to the packaging company. Treatment allocation was concealed by an identical packaging and labelling process performed by Aptuit, Inc. (Mount Laurel, N.J., USA). The study patients, obstetric care providers, study investigators, study coordinators, and study monitors were blind to the exposure status (progesterone or placebo) of all study patients.
Subjects were randomized in a 1:1 ratio to receive PROCHIEVE® 8% (vaginally administered 90 mg natural progesterone gel) or placebo vaginal gel. All women performed self-dosing on a daily basis of their assigned study medication, either PROCHEIVE® (progesterone) or placebo.
Statistical analysis was based on the intent-to-treat principle.
Patients who were currently or previously enrolled in another investigational study within 1 month prior to screening for the present study were not included in the trial. Patients were also restricted from participation in the trial if the present pregnancy was complicated by a major fetal anomaly or a known chromosome disorder, or was a multifetal gestation. Patients with a cervical cerclage in place, or those intending to have one placed during the current pregnancy, were excluded from study participation, as were those with signs of preterm rupture of membranes, vaginal bleeding, amnionitis, or preterm labor at enrollment.
The study drug was packaged and labelled according to the 1:1 randomization scheme provided by Quintiles, Inc (Kansas City, Mo., USA). A SAS (SAS Institute Inc., Cary, N.C., USA) procedure for variable block size was used to generate the randomization schedule stratified by study site. […] The study drug (Prochieve® 8% progesterone gel) and placebo (Replens®) were provided by Columbia Laboratories, Inc. (Livingston, N.J., USA). Patients were instructed to self-administer the full applicator of vaginal gel at approximately the same time daily, preferably in the morning. Patients received a 2-week supply of the allocated treatment at the time of randomization, and at every 2-week study visit thereafter. All drug supplies were to be brought in at each visit at all study centers, and compliance with the study medication was determined from returned empty wrappers and unused wrappers. Percent compliance was assessed as total treatment duration compliance: (total applicators used/total dosing days)×100. Total dosing days was defined as the interval from enrollment to either the date of preterm premature rupture of membranes, the date of preterm birth without accompanying ruptured membranes, or 37 0/7 weeks' gestation.
The occurrence of adverse events was queried at each 2-week study visit at all centers by asking if the patient had any complaints or problems. Subjects received an extra 1-week drug supply when treatment was initiated in case they could not make the next regularly scheduled appointment.

[5] = baseline cervical length ≦3.0 cm, total 58
[6] = cervical length <2.8 cm, versus placebo
[7] = ITT, history of spontaneous preterm birth
[8] = neonates, history of spontaneous preterm birth

## CC(=O)[C@H]1CC[C@H]2[C@@H]3CCC4=CC(=O)CC[C@]4(C)[C@H]3CC[C@]12C [progesterone]
[1]
  mean decrease in cervix length: 0.44 cm
[2]; Dodd et al. meta-analysis of randomized trials, versus placebo
  occurrence of perinatal death: no statistically significant difference
[2]; O'Brien et al., high risk women selected by a history of spontaneous preterm birth, prophylactic vaginal gel
  frequency of recurrent preterm birth: does not effectively reduce
[3]; baseline cervical length greater than 3.2 cm, versus placebo
  time to delivery (Kaplan-Meier curve): no statistically significant difference
[3]; baseline cervical length less than 2.8 cm, versus placebo
  time to delivery (Kaplan-Meier curve): probability of not delivering over a longer gestation period
[3]; baseline cervical length less than or equal to 3.0 cm, versus placebo
  time to delivery (Kaplan-Meier curve): probability of not delivering over a longer gestation period
[3]; baseline cervical length less than or equal to 3.2 cm, versus placebo
  time to delivery (Kaplan-Meier curve): probability of not delivering over a longer gestation period
[3]; baseline cervical length ≦2.8 cm, total 19
  Births >32 Weeks, Number: 19
[3]; [5]
  Births >32 Weeks, Number: 54
  Births ≦32 Weeks, Number: 4
[3]; cervical length <2.8 cm
  NICU admissions: 15.8%
  fetal/infant deaths: none
  length of NICU stay: 1.1 days
  preterm deliveries at less than or equal to 28 weeks, number: no preterm deliveries
  rate of neonatal respiratory distress syndrome: 5.3%
  total neonatal hospital days: 5.8 days
[3]; cervical length <2.8 cm at enrollment, 19 on progesterone
  rate of preterm birth at ≦32 weeks: 0%
[3]; [6]
  reduction of the number of preterm delivery at less than 35 weeks: about half
  reduction of the number of preterm delivery at less than or equal to 37 weeks: about half
[3]; short cervix only population, no history of preterm birth, 4 patients on progesterone
  delivering ≦32 weeks gestation: 0
[4]; [7]
  admissions for preterm labor: 25.6%
  head circumference of the neonates: 32.3±3.34 cm
  mean birth weight of the neonates: 2680±710 gm
  mean gestational age at delivery: 36.6 weeks
  rate of preterm birth at <37 0/7 weeks: 41.7%
  rate of preterm birth at ≦28 0/7 weeks: 3.2%
  rate of preterm birth at ≦35 0/7 weeks: 22.7%
  rate of preterm rupture of membranes: 12.0%
  rate of stillbirth/intrauterine fetal demise: 1.6%
[4]; ITT, history of spontaneous preterm birth, 8% progesterone vaginal gel 90 mg once daily
  rate of preterm birth at ≦32 0/7 weeks of gestation (primary outcome): 10.0%
[4]; neonates
  1-minute APGAR score, median: 8
  5-minute APGAR score, median: 9
[4]; [8]
  occurrence of grade 3 or 4 intraventricular haemorrhage: 0.3%
  occurrence of necrotizing enterocolitis: 1.0%
  occurrence of newborn respiratory distress syndrome: 11.0%
  rate of admission to a neonatal intensive care unit: 17.5%
[4]; patients admitted for treatment of preterm labor
  number of days from admission to delivery: 30 days
[4]; versus placebo, in words
  mean gestational age at delivery, infant morbidity or mortality, or other maternal or neonatal outcome measure: no difference
  treatment emergent adverse events: similar
[4]; versus placebo, in words, history of spontaneous preterm birth
  frequency of preterm birth at ≦32 weeks: did not decrease
[4]; versus placebo, in words, history of spontaneous preterm birth, listed as vaginal progesterone gel
  frequency of preterm birth at ≦32 weeks: does not effectively reduce
